Results taken from EP0269230A1, “Heterocyclic compounds” (priority 1986, dated 1988).
≈ marks a conversion by molar mass, not a printed value.

Key:
[1] = system: Musca domestica; test: Lethal activity against insects, spray test on female Musca domestica; assay type: in vivo; conditions: sprayed onto 20 female Musca domestica, mortality after 48 hrs at 25°C
Protocol: (§1) The activity of the compounds of the invention was tested by dissolving the compounds in acetone (5%) and then diluting in water: "Symperonic" (94.5%:0.5%) to give a water emulsion. The solution was then used to treat the following insects: Musca domestica, Plutella xylostella, Myzus persicae and Tetranychus urticae.
20 Female Musca domestica were contained in a cardboard cyclinder with gauze over either end. A solution containing the compounds was sprayed onto the insects so enclosed and mortality assessed after 48 hrs at 25°C.

[2] = system: Musca domestica (WRL strain); test: Topical application to unanaesthetised female Musca domestica; assay type: in vivo; conditions: topical application in cellosolve; mortality assessed after 10 mins, 1 hr, 24 hrs and 48 hrs
Protocol: Mortality was assessed after 10 mins, 1 hr, 24 hrs and 48 hrs.

[3] = system: Myzus persicae; test: Lethal activity against insects, spray test on adult Myzus on chinese cabbage leaf disc; assay type: in vivo; conditions: 10 adult Myzus on leaf disc sprayed, mortality after 2 days at 25°C
Protocol: as §1
10 adult Myzus were placed on a leaf disc of chinese cabbage. 24 hours later the disc was sprayed with the solution containing the compound. Mortality was assessed after 2 days at 25°C.

[4] = system: Coriolusversicolor, Coniophora putena, Aureobasidium pullulans and Chaetomium globosum; test: Antifungal testing, primary soft agar screen, inhibition of hyphae growth; assay type: cell-based; conditions: fungus not specified per compound; for IC50: read-out: IC₅₀
Protocol: The antifungal activity of compounds of the invention was determined using a primary soft agar screen. The concentration dependent inhibition of hyphae growth was determined for Coriolusversicolor, Coniophora putena, Aureobasidium pullulans and Chaetomium globosum.

[5] = system: Plutella xylostella; test: Lethal activity against insects, spray test on Plutella larvae on chinese cabbage leaf; assay type: in vivo; conditions: 7 Plutella larvae and leaf sprayed, mortality after 2 days at 25°C
Protocol: as §1
7 Plutella larvae were sprayed with the solution containing the compound and added to a chinese cabbage leaf which had been similarly sprayed and left to dry. Mortality was assessed after 2-days at 25°C.

[6] = Mammalian toxicity, oral, mice; assay type: in vivo; conditions: given orally to mice (Charles River CD1)
Protocol: 1-(2E)-6-Methoxyimino-3-methylhex-2-enyl-2-methylbenzimidazole and 1-geranyl-2,6,7-trimethylbenzimidazole have an LD₅₀ value of approximately 200 mg when given orally to mice (Charles River CD1).

[7] = system: Tetranychus urticae; test: Lethal activity, spray test on infested french bean leaf discs; assay type: in vivo; conditions: infested leaf discs sprayed, mortality after 2 days at 25°C
Protocol: as §1
Leaf discs of infested french bean were sprayed with the solution containing the compound. Mortality was assessed after 2 days at 25°C.

Compound | LD₅₀ [2] [µg/fly] | IC50 [4] [µg/mL] | other results
CC(C)=CCC/C(C)=C/Cn1c(C)nc2c(C)cccc21 [1-Geranyl-2,4-dimethylbenzimidazole, 2,4-Dimethyl-1-geranylbenzimidazole] | < 10 | 30 (≈ 106 µM) | active at 200 ppm [1]: active; active at 200 ppm [3]: active
C/C(=C\Cn1c(C)nc2ccccc21)CCCC(C)(C)OC(=O)Nc1ccccc1 [(5E)-7-(2-Methylbenzimidazole-1-yl)-1,1,5-trimethylhept-5-enyl-N-phenyl-carbamate] | < 10 | 30 (≈ 74 µM) | –
COC(=O)c1cccc2nc(C)n(C/C=C(\C)CCC=C(C)C)c12 [Methyl 1-geranyl-2-methyl-benzimidazole-7-carboxylate] | – | 30 (≈ 91.9 µM) | –
CC(C)=CCC/C(C)=C/Cn1c(C)nc2cc(C)c(C)cc21 [1-Geranyl-2,5,6-trimethylbenzimidazole] | – | 30 (≈ 101 µM) | –
COC(C)(C)CCC/C(C)=C/Cn1c(C)nc2c(C)c(C)ccc21 [(2E)-1-(7-Methoxy-3,7-dimethyloct-2-enyl)-2,4,5-trimethylbenzimidazole] | < 10 | – | active at 200 ppm [1]: active; active at 1000 ppm [5]: active; active at 200 ppm [3]: active
5(6)-Ethoxy-1-geranyl-2-methyl-benzimidazole | – | – | IC₅₀ [4]: 30 ppm
CC(C)=CCC/C(C)=C/Cn1c(C)nc2ccc(C)c(C)c21 [1-Geranyl-2,6,7-trimethylbenzimidazole] | < 10 | 30 (≈ 101 µM) | active at 1000 ppm [1]: active; active on Myzus persicae at 1000 ppm [3]: active; LD₅₀ [6]: approximately 200 mg
COC(C)(C)CCC/C(C)=C/Cn1c(C)nc2c(C)cccc21 [(2E)-1-(7-Methoxy-3,7-dimethyloct-2-enyl)-2,4-dimethylbenzimidazole] | < 10 | 30 (≈ 95.4 µM) | active at 200 ppm [1]: active; active at 200 ppm [3]: active; active against Tetranychus urticae at 200 ppm [7]: active
1-Geranyl-2-methyl-5(6)-nitrobenzimidazole | < 10 | – | active on Myzus persicae at 1000 ppm [3]: active
C=CCCC(C)=CCn1c(C)nc2ccccc21 [1-[3-Methylhepta-2,6-dienyl]-2-methylbenzimidazole] | – | 30 (≈ 125 µM) | –
CC(C)=CCC/C(C)=C/Cn1c(C)nc2c(N)cccc21 [4-Amino-1-geranyl-2-methylbenzimidazole] | < 10 | 30 (≈ 106 µM) | active at 1000 ppm [1]: active
CC(C)=CCC/C(C)=C/CC/C(C)=C/Cn1c(C)nc2c(C)cccc21 [(2E,6E)-2,4-dimethyl-1-(3,7,11)-(trimethyldodeca-2,6,10-trienyl)benzimidazole] | – | 30 (≈ 85.6 µM) | –
1-Geranyl-5(6)-methoxy-2-methylbenzimidazole | < 10 | – | active at 1000 ppm [1]: active; active on Myzus persicae at 1000 ppm [3]: active; IC₅₀ [4]: 30 ppm
5(6)-Chloro-geranyl-2-methylbenzimidazole | – | – | IC₅₀ [4]: 30 ppm
C=CCCC=CCn1c(C)nc2ccccc21 [1-[Hepta-2,6-dienyl]-2-methylbenzimidazole] | – | 30 (≈ 133 µM) | –
COc1ccc2c(c1)nc(C)n2C/C=C(\C)CC/C=C(\C)CCC=C(C)C [(2E,6E)-5-Methoxy-2-methyl-1-(3,7,11-trimethyldodeca-2,6,10-trienyl)benzimidazole] | – | 30 (≈ 81.8 µM) | –
CC(=CCn1c(C)nc2ccccc21)CCOC(C)C (mixture of isomers) [(E/Z)-1-(5-isopropoxy-3-methylpent-2-enyl)-2-methylbenzimidazole] | < 10 | – | –
C/C(=C\Cn1c(C)nc2ccccc21)CCC=NOCc1ccccc1 [2-Methyl-1-[(2E)-3-methyl-6-benzyloxyiminohex-2-enyl]benzimidazole] | – | 30 (≈ 86.3 µM) | –
COC(C)(C)CCC/C(C)=C/Cn1c(C)nc2ccc(C)c(C)c21 [(2E)-1-(7-Methoxy-3,7-dimethyloct-2-enyl)-2,6,7-trimethylbenzimidazole] | – | 30 (≈ 91.3 µM) | –
CC=CCC/C(C)=C/Cn1c(C)nc2ccccc21 [(2E)-2-Methyl-1-(3-methlocta-2,6-dienyl)benzimidazole] | < 10 | 30 (≈ 118 µM) | –
CC(C)=CCC/C(C)=C/Cn1c(C)nc2c([N+](=O)[O-])cccc21 [1-Geranyl-2-methyl-4-nitrobenzimidazole] | < 10 | 30 (≈ 95.7 µM) | active at 1000 ppm [1]: active; active at 200 ppm [3]: active
C/C(=C\Cn1c(C)nc2ccccc21)CCC=C(Cl)Cl [1-, (2E)-7,7-Dichloro-3-methylhepta-2,6-dienyl,-2-methylbenzimidazole] | – | 30 (≈ 97 µM) | –
CC(C)=CCC/C(C)=C/Cn1c(C)nc2c(Cl)cc(Cl)cc21 [4(7),6(5)-Dichloro-1-geranyl-2-methylbenzimidazole] | – | – | IC₅₀ [4]: 30 ppm
CON=CCC/C(C)=C/Cn1c(C)nc2ccccc21 [1-[(2E)-6-Methoxyimino-3-methylhex-2-enyl]-2-methybenzimidazole] | < 10 | – | LD₅₀ [6]: approximately 200 mg
CC(C)=CCC/C(C)=C/Cn1c(Cl)nc2ccccc21 [2-Chloro-1-geranylbenzimidazole] | < 10 | – | active at 1000 ppm [1]: active; active on Myzus persicae at 1000 ppm [3]: active
